Laboratory results from patent publication US12421242B2, “Substituted tetrahydropyrrolo-pyridinone compounds and their use in treating medical conditions” (Karuna Therapeutics, Inc., priority 2022, dated 2025).
pEC50: −log10 of the molar value.

Experiments:
[1] = molecular target: T1, hM4 receptors (Homo sapiens, UniProt P08173); test: Human M4 PAM pERK assay; format: cell-based; settings: PAM mode
T1 construct: expressed in transfected cells; host or cells: CHO cells
T1 sequence (P08173 1-479): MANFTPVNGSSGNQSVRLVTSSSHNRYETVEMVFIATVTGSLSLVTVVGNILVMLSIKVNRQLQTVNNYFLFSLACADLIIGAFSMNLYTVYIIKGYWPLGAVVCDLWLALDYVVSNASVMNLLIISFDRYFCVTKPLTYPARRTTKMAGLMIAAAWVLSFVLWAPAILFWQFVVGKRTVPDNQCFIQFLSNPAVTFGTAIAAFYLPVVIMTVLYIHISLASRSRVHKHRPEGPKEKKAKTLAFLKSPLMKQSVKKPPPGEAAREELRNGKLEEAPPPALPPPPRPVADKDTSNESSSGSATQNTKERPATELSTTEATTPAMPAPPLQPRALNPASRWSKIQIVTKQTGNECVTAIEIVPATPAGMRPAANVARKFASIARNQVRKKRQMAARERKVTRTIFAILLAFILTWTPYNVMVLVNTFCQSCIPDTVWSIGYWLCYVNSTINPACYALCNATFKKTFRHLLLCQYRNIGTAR
Method in brief: (§1)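 CHO cells expressing hM4 or rM4 were serum-starved 4 h, then given compound (ten-point curve, 10 μM top, duplicate) with an EC20 of acetylcholine (10 nM final) for 5 min at 37° C. Phospho-ERK in lysates was detected by TR-FRET.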

[2] = molecular target: T2, rM4 receptors (Rattus norvegicus, UniProt P08485); test: Rat M4 PAM pERK assay; format: cell-based; settings: PAM mode
T2 construct: expressed in transfected cells; host or cells: CHO cells
T2 sequence (P08485 1-478): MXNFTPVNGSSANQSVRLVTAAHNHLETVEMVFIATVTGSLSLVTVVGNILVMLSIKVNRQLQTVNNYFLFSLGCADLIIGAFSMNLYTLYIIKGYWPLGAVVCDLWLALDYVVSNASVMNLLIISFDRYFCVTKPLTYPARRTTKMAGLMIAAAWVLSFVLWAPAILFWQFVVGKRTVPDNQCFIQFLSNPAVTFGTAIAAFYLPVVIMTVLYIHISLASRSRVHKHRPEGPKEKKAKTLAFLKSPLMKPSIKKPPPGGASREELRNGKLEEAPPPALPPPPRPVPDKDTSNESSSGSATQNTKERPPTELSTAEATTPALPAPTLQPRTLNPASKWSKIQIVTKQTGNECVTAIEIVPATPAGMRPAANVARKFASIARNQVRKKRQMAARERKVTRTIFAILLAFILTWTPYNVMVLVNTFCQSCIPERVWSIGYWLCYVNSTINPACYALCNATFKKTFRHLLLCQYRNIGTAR
Method in brief: as §1

## COc1c2c(n(C)c(=O)c1C)CN(C(=O)c1cnn(C(F)(F)F)c1)C2 [Compound I-87]
[1]
  pEC50: > 7.00
[2]
  pEC50: < 5.70

## Cc1c2c(n(C)c(=O)c1Cl)CN(C(=O)c1cnn(C(F)(F)F)c1)C2 [Compound I-1, 3-chloro-1,4-dimethyl-6-(1-(Trifluoromethyl)-1H-pyrazole-4-carbonyl)-1,5,6,7-tetrahydro-2H-pyrrolo[3,4-b]pyridin-2-one]
[1]
  pEC50: > 7.00
[2]
  pEC50: 5.70 to 6.30

## Cc1c2c(n(C)c(=O)c1Cl)CN(C(=O)c1cnn(C(F)(F)F)c1)[C@@H]2C [Compound I-76, (R)-3-Chloro-1,4,5-trimethyl-6-(1-(trifluoromethyl)-1H-pyrazole-4-carbonyl)-1,5,6,7-tetrahydro-2H-pyrrolo[3,4-b]pyridin-2-one]
[1]
  pEC50: > 7.00
[2]
  pEC50: 6.30 to 7.00
